{
  "source": "patent US10376499B2",
  "about": "“Combination therapy for treatment of resistant bacterial infections” (priority 2014, dated 2019)",
  "key": {"A. baumannii [1]": {"test_system": "A. baumannii", "test": "MIC by broth microdilution (CLSI), panel of 60 A. baumannii clinical isolates (Example 1)", "settings": "Acinetobacter baumannii"}, "A. baumannii [2]": {"test_system": "A. baumannii", "test": "MIC90 of common antibiotics+compound 1, 196 contemporary clinical isolates of A. baumannii (Example 4)", "settings": "B-lactam + Cmpd 1 (4 μg/mL)"}, "Enterobacteriaceae": {"test_system": "Enterobacteriaceae", "test": "organism not typed", "format": "cell-based"}, "A. baumannii [3]": {"test_system": "A. baumannii", "test": "MIC, 20 diverse recent strains of A. baumannii (Example 10)", "format": "cell-based, Acinetobacter baumannii", "settings": "N 20 A. baumannii strains"}, "Klebsiella pneumoniae": {"test_system": "Klebsiella pneumoniae", "test": "MIC, recent Enterobacteriaceae clinical isolates: Klebsiella pneumoniae (Examples 7, 11)"}, "Escherichia coli": {"test_system": "Escherichia coli", "test": "MIC, recent Enterobacteriaceae clinical isolates: Escherichia coli (Examples 7, 11)"}},
  "data": [
    {"compound": "CC1(C)[C@H](C(=O)O)N2C(=O)C[C@H]2S1(=O)=O", "note": "[Sulbactam, (2S,5R)-3,3-dimethyl-7-oxo-4-thia-1-azabicyclo[3.2.0]heptane-2-carboxylic acid 4,4-dioxide]", "values": [
      {"measurement": "MIC", "setting": "A. baumannii [1]; strain ARC5077, OXA*, OXA-72", "result": 32, "unit": "µg/mL"},
      {"measurement": "MIC", "setting": "A. baumannii [1]; strain ARC5079, OXA-72, OXA-65", "result": 32, "unit": "µg/mL"},
      {"measurement": "MIC", "setting": "A. baumannii [1]; strain ARC5080, OXA-71, OXA-40", "result": 32, "unit": "µg/mL"},
      {"measurement": "MIC", "setting": "A. baumannii [1]; strain ARC5082, OXA-66, OXA-23", "result": 64, "unit": "µg/mL"},
      {"measurement": "MIC", "setting": "A. baumannii [1]; strain ARC5083, OXA-66, OXA-23", "result": 16, "unit": "µg/mL"},
      {"measurement": "MIC", "setting": "A. baumannii [1]; strain ARC5084, IMP-4(B), OXA-58, OXA-65", "result": 4, "unit": "µg/mL"},
      {"measurement": "MIC", "setting": "A. baumannii [1]; strain ARC5085, OXA*, TEM-1", "result": 32, "unit": "µg/mL"},
      {"measurement": "MIC", "setting": "A. baumannii [1]; strain ARC5086, OXA*, TEM-1, OXA-72, OXA-66", "result": 32, "unit": "µg/mL"},
      {"measurement": "MIC", "setting": "A. baumannii [1]; strain ARC5087, OXA-66, OXA-23", "result": 32, "unit": "µg/mL"},
      {"measurement": "MIC", "setting": "A. baumannii [1]; strain ARC5088, OXA-20, OXA-58, OXA-66", "result": 16, "unit": "µg/mL"},
      {"measurement": "MIC", "setting": "A. baumannii [1]; strain ARC5089, PER*, TEM-1, OXA-23, OXA-66", "result": 32, "unit": "µg/mL"},
      {"measurement": "MIC90", "setting": "A. baumannii [2]", "result": 2, "unit": "µg/mL"},
      {"measurement": "MIC50", "setting": "Enterobacteriaceae", "result": 64, "unit": "µg/mL"},
      {"measurement": "MIC90", "setting": "Enterobacteriaceae", "result": 256, "unit": "µg/mL"},
      {"measurement": "MIC50", "setting": "A. baumannii [3]", "result": 16, "unit": "µg/mL"},
      {"measurement": "MIC90", "setting": "A. baumannii [3]", "result": 64, "unit": "µg/mL"},
      {"measurement": "MIC Max", "setting": "A. baumannii [3]", "result": "> 64", "unit": "µg/mL"},
      {"measurement": "MIC Min", "setting": "A. baumannii [3]", "result": 2, "unit": "µg/mL"},
      {"measurement": "MIC50", "setting": "Klebsiella pneumoniae", "result": 64, "unit": "µg/mL"},
      {"measurement": "MIC90", "setting": "Klebsiella pneumoniae", "result": "> 256", "unit": "µg/mL"},
      {"measurement": "MIC", "setting": "Klebsiella pneumoniae; Klebsiella pneumoniae ARC4420, SHV-11, SHV-12, DHA-1, OXA-1", "result": 128, "unit": "µg/mL"},
      {"measurement": "MIC", "setting": "Klebsiella pneumoniae; Klebsiella pneumoniae ARC4427, SHV-1, OXA-1", "result": "> 256", "unit": "µg/mL"},
      {"measurement": "MIC", "setting": "Klebsiella pneumoniae; Klebsiella pneumoniae ARC4451, SHV-11, KPC-3", "result": "> 256", "unit": "µg/mL"},
      {"measurement": "MIC", "setting": "Klebsiella pneumoniae; Klebsiella pneumoniae ARC4457, SHV-11, DHA-1", "result": 64, "unit": "µg/mL"},
      {"measurement": "MIC", "setting": "Klebsiella pneumoniae; Klebsiella pneumoniae ARC4460, SHV-11, CTX-M15, OXA-1, NDM-1", "result": "> 256", "unit": "µg/mL"},
      {"measurement": "MIC", "setting": "Klebsiella pneumoniae; Klebsiella pneumoniae ARC4467, SHV-33, TEM-1, OXA-1, DHA-1", "result": 64, "unit": "µg/mL"},
      {"measurement": "MIC", "setting": "Klebsiella pneumoniae; Klebsiella pneumoniae ARC4468, SHV-1", "result": 64, "unit": "µg/mL"},
      {"measurement": "MIC", "setting": "Klebsiella pneumoniae; Klebsiella pneumoniae ARC4476, SHV-11, KPC-2, OXA-9[W117*]", "result": "> 256", "unit": "µg/mL"},
      {"measurement": "MIC", "setting": "Klebsiella pneumoniae; Klebsiella pneumoniae ARC4482, SHV-27[A122V], OXA-1", "result": 32, "unit": "µg/mL"},
      {"measurement": "MIC", "setting": "Klebsiella pneumoniae; Klebsiella pneumoniae ARC4486, SHV-11, DHA-1, OXA-1[E69K]", "result": 128, "unit": "µg/mL"},
      {"measurement": "MIC", "setting": "Klebsiella pneumoniae; Klebsiella pneumoniae ARC4488, SHV-11, CTX-M15, OXA-1, TEM-1", "result": 64, "unit": "µg/mL"},
      {"measurement": "MIC", "setting": "Klebsiella pneumoniae; Klebsiella pneumoniae ARC4490, SHV-11, CTX-M15, KPC-2, OXA-1", "result": 256, "unit": "µg/mL"},
      {"measurement": "MIC", "setting": "Escherichia coli; Escherichia coli", "result": 128, "unit": "µg/mL"},
      {"measurement": "MIC50", "setting": "Escherichia coli; Escherichia coli", "result": 64, "unit": "µg/mL"},
      {"measurement": "MIC90", "setting": "Escherichia coli; Escherichia coli", "result": 64, "unit": "µg/mL"},
      {"measurement": "MIC", "setting": "Escherichia coli; Escherichia coli ARC4471, CMY-2+, OXA-1+, TEM-1+", "result": 128, "unit": "µg/mL"},
      {"measurement": "MIC", "setting": "Escherichia coli; Escherichia coli, ATCC25922, Escherichia coli ARC4, none (ATCC 25922) CLSI control", "result": 64, "unit": "µg/mL"},
      {"measurement": "MIC", "setting": "Escherichia coli; Escherichia coli, Escherichia coli ARC4416, CTX-M-14+, TEM-1+", "result": 32, "unit": "µg/mL"},
      {"measurement": "MIC", "setting": "Escherichia coli; Escherichia coli, Escherichia coli ARC4418, CTX-M-14+, CMY-2+", "result": 32, "unit": "µg/mL"},
      {"measurement": "MIC", "setting": "Escherichia coli; Escherichia coli, Escherichia coli ARC4419, SHV-12+", "result": 32, "unit": "µg/mL"},
      {"measurement": "MIC", "setting": "Escherichia coli; Escherichia coli, Escherichia coli ARC4421, CTX-M-55, TEM-1+, CMY-2+", "result": 64, "unit": "µg/mL"},
      {"measurement": "MIC", "setting": "Escherichia coli; Escherichia coli, Escherichia coli ARC4426, TEM-1+, CMY-2+", "result": 32, "unit": "µg/mL"},
      {"measurement": "MIC", "setting": "Escherichia coli; Escherichia coli, Escherichia coli ARC4429, TEM-1+, CMY-2+", "result": 64, "unit": "µg/mL"},
      {"measurement": "MIC", "setting": "Escherichia coli; Escherichia coli, Escherichia coli ARC4436, CTX-M-14+, TEM-1+", "result": 32, "unit": "µg/mL"},
      {"measurement": "MIC", "setting": "Escherichia coli; Escherichia coli, Escherichia coli ARC4449, CMY-2+, TEM-1+", "result": 64, "unit": "µg/mL"},
      {"measurement": "MIC", "setting": "Escherichia coli; Escherichia coli, Escherichia coli ARC4450, TEM-1+, OXA-1+, CMY-2+", "result": 64, "unit": "µg/mL"},
      {"measurement": "MIC", "setting": "Escherichia coli; Escherichia coli, Escherichia coli ARC4452, SHV-12+", "result": 32, "unit": "µg/mL"},
      {"measurement": "MIC", "setting": "Escherichia coli; Escherichia coli, Escherichia coli ARC4455, SHV-12+", "result": 32, "unit": "µg/mL"},
      {"measurement": "MIC", "setting": "Escherichia coli; Escherichia coli, Escherichia coli ARC4465, CMY-2+", "result": 32, "unit": "µg/mL"},
      {"measurement": "MIC", "setting": "Escherichia coli; Escherichia coli, Escherichia coli ARC4472, CMY-2+, TEM-1+", "result": 64, "unit": "µg/mL"},
      {"measurement": "MIC", "setting": "Escherichia coli; Escherichia coli, Escherichia coli ARC4477, CTX-M-15+, TEM-1+", "result": 32, "unit": "µg/mL"},
      {"measurement": "MIC", "setting": "Escherichia coli; Escherichia coli, Escherichia coli ARC4478, CTX-M-15+, CMY-2+", "result": 32, "unit": "µg/mL"},
      {"measurement": "MIC", "setting": "Escherichia coli; Escherichia coli, Escherichia coli ARC4479, CMY-42+, OXA-1+, OXA-9+, TEM-1+", "result": 64, "unit": "µg/mL"},
      {"measurement": "MIC", "setting": "Escherichia coli; Escherichia coli, Escherichia coli ARC4485, CMY-2+, OXA-1+, CTX-M-15+", "result": 64, "unit": "µg/mL"},
      {"measurement": "MIC", "setting": "Escherichia coli; Escherichia coli, Escherichia coli ARC4487, SHV-5+, DHA-1+, TEM-1+, OXA-1+, CMY-2+", "result": 64, "unit": "µg/mL"}
    ]}
  ]
}
